# Laboratory results as given in patent publication US12344603B2 (Genentech, Inc., priority 2020, dated 2025).
# Biological target: IRE1α (Homo sapiens (Human), UniProt O75460, D688N)
# Experiment: IRE1α TR-FRET competition binding assay (IRE1α HTRF)
# Conditions: TR-FRET competition binding to kinase domain of IRE1α
# Method in brief: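 Competition of compounds against an Alexa fluor 647 ATP-site probe (2 nM final) for the His-tagged kinase domain (0.25 nM final), detected via 2 nM Eu anti-His antibody by TR-FRET, 665 and 615 nm emission. Protein–antibody premix 1 h, 4° C; reaction 1 h, room temperature, pH 7.5 HEPES buffer.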
# Chain of IRE1α (O75460 547-977 D688N): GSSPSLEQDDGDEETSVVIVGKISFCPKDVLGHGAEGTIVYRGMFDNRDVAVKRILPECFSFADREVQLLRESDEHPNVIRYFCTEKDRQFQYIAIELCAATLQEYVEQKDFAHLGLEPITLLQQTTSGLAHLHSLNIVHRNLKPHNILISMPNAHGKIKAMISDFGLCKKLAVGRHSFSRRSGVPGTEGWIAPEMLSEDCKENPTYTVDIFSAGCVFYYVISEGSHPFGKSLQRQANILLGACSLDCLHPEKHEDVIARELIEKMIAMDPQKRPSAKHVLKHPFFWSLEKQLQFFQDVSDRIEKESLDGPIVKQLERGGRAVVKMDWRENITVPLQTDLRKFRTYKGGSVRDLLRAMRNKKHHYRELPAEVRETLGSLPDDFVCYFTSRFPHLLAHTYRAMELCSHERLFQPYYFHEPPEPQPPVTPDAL
row,SMILES,IC50 [nM]
1,"CC(C)n1c(=O)c(-c2ccc(NS(=O)(=O)CCC(F)(F)F)c(F)c2)cc2cnc(NC3CCC(N(C)C)C(O)C3)nc21 (stereo not drawn) [Compound 226, N-(4-(2-((4-(dimethylamino)-3-hydroxycyclohexyl)amino)-8-isopropyl-7-oxo-7,8-dihydropyrido[2,3-d]pyrimidin-6-yl)-2-fluorophenyl)-3,3,3-trifluoropropane-1-sulfonamide]",0.3
2,"CC(C)n1c(=O)c(-c2ccc(NS(=O)(=O)CCC(F)(F)F)nc2)cc2cnc(N[C@H]3CC[C@H](N(C)C)CC3)nc21 [Example 215, N-(5-(2-(((1r,4r)-4-(dimethylamino)cyclo-hexyl)amino)-8-isopropyl-7-oxo-7,8-dihydropyrido[2,3-d]-pyrimidin-6-yl)pyridin-2-yl)-3,3,3-trifluoro-propane-1-sulfonamide]",0.3
3,"CC(C)n1c(=O)c(-c2ccc(NS(=O)(=O)CCC(F)(F)F)nc2)cc2cnc(N[C@@H]3CNC[C@@H](F)C3)nc21 [Example 216, 3,3,3-trifluoro-N-(5-(2-(((3S,5S)-5-fluoro-piperidin-3-yl)amino)-8-isopropyl-7-oxo-7,8-dihydropyrido[2,3-d]-pyrimidin-6-yl)pyridin-2-yl)propane-1-sulfon-amide]",1.7
4,"CC(C)n1c(=O)c(-c2ccc(NS(=O)(=O)CCC(F)(F)F)c(F)c2)cc2cnc(NC3CCC4(CC3)CNC4)nc21 [Example 220, N-(4-(2-((2-azaspiro[3.5]nonan-7-yl)amino)-8-isopropyl-7-oxo-7,8-dihydropyrido[2,3-d]pyrimidin-6-yl)-2-fluorophenyl)-3,3,3-trifluoropropane-1-sulfonamide]",5
5,"CC(C)n1c(=O)c(-c2ccc(NS(=O)(=O)CCC(F)(F)F)c(F)c2)cc2cnc(NC3CCC4(CC3)CN(C)C4)nc21 [Example 221, 3,3,3-Trifluoro-N-(2-fluoro-4-(8-isopropyl-2-((2-methyl-2-azaspiro[3.5]nonan-7-yl)amino)-7-oxo-7,8-dihydropyrido[2,3-d]pyrimidin-6-yl)phenyl)propane-1-sulfonamide]",0.2
6,"CC(C)n1c(=O)c(-c2cnc(NS(=O)(=O)CCC(F)(F)F)c(F)c2)cc2cnc(N[C@H]3CC[C@H](N(C)C)CC3)nc21 [Example 222, N-(5-(2-(((1r,4r)-4-(dimethylamino)cyclo-hexyl)amino)-8-isopropyl-7-oxo-7,8-dihydropyrido[2,3-d]-pyrimidin-6-yl)-3-fluoropyridin-2-yl)-3,3,3-trifluoropropane-1-sulfonamide]",0.3

# Further molecules by falling IC50, results first:
row,IC50 [nM],SMILES
1,0.2,"CC(C)n1c(=O)c(-c2ccc(NS(=O)(=O)CCC(F)(F)F)c(F)c2)cc2cnc(N[C@H]3CC[C@H](N(C)C)[C@@H](O)C3)nc21 [Compound 228, N-(4-(2-(((1S,3S,4S)-4-(dimethylamino)-3-hydroxycyclohexyl)amino)-8-isopropyl-7-oxo-7,8-dihydropyrido[2,3-d]pyrimidin-6-yl)-2-fluorophenyl)-3,3,3-trifluoropropane-1-sulfonamide]"
2,0.2,"CC(C)n1c(=O)c(-c2ccc(NS(=O)(=O)CCC(F)(F)F)cn2)cc2cnc(N[C@H]3CC[C@H](N(C)C)CC3)nc21 [Example 218, N-(6-(2-(((1r,4r)-4-(dimethylamino)cyclo-hexyl)amino)-8-isopropyl-7-oxo-7,8-dihydropyrido[2,3-d]-pyrimidin-6-yl)pyridin-3-yl)-3,3,3-trifluoro-propane-1-sulfonamide]"
3,0.14,"CC(C)n1c(=O)c(-c2ccc(NS(=O)(=O)CCC(F)(F)F)c(F)c2)cc2cnc(N[C@H]3CC[C@H](N4CCOCC4)CC3)nc21 [Compound 213, 3,3,3-Trifluoro-N-(2-fluoro-4-(8-isopropyl-2-(((1,4-trans)-4-morpholinocyclohexyl)amino)-7-oxo-7,8-dihydropyrido[2,3-d]pyrimidin-6-yl)phenyl)propane-1-sulfonamide]"
